Laboratory results: US12054485B2, “Substituted imidazoquinolines” (BIONTECH SE, priority 2017, dated 2024)

What was measured:
human TLR7 = target: T1, human TLR7 (Homo sapiens, UniProt Q9NYK1); assay: TLR7 reporter gene assay (HEK-Blue-hTLR7, NFkB/AP-1 inducible SEAP); assay type: cell-based; settings: HEK-Blue-hTLR7; read-out: EC50 in the TLR7 reporter gene assay
T1 construct: host or cells: HEK-Blue-hTLR7
T1 sequence (Q9NYK1 27-1049): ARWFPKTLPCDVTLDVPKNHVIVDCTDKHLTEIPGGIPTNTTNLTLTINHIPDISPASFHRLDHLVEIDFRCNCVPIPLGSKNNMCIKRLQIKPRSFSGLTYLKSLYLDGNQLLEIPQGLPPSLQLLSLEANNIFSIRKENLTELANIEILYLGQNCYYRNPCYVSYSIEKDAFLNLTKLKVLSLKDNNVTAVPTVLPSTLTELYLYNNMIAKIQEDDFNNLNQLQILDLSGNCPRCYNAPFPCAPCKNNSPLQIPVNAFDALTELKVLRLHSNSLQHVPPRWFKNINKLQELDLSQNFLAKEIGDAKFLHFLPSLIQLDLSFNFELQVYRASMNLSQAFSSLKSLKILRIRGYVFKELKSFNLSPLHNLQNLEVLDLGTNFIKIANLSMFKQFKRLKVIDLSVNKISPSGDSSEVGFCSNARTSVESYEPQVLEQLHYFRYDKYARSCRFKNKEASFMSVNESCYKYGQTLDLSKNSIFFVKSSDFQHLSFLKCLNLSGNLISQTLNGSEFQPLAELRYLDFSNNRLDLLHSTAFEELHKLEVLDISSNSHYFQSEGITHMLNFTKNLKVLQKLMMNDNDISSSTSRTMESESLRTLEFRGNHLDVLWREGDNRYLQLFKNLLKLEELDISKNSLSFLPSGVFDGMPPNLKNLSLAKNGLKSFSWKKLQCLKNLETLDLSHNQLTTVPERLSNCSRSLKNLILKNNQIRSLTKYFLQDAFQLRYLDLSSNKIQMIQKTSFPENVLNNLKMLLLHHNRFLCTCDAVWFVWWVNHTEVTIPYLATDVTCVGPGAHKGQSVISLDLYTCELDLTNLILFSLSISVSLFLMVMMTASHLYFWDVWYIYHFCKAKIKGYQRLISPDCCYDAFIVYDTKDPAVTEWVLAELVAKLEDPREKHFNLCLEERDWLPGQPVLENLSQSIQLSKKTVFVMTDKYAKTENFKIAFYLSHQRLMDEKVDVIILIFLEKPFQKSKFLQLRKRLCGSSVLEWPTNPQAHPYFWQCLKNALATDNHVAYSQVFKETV
Description: 2) TLR Stimulation Assay:
Compounds are tested for stimulation of human TLR7 and TLR8, respectively, via reporter gene expression analyzed in a cell line stably transfected with human TLR7 and TLR8, respectively, and coexpressing an NFkB/AP-1 inducible SEAP reporter gene. Stimulation with a TLR ligand leads to NFkB/AP-1 activation and upregulation and secretion of SEAP, which can be measured in the supernatant with QuantiBlue™ detection system (InvivoGen).
Cell lines used were either HEK-Blue-hTLR7 (InvivoGen #hkb-htlr7) or HEK-Blue-hTLR8 (InvivoGen #hkb-htlr8). Cells were cultured following manufacturer's instructions.
Assay: • prepare cell suspensions of each cell line with Nv=0.11×10^6 cells/ml in medium (DMEM 4.5 g/l Glucose, 2-4 mM L-glutamine+10% FBS) without antibiotics (Nv=number of living cells) • add 180 μl of the suspensions per well of a 96 well flat bottom cell culture plates (coster, #3506) • incubate the plates overnight at 37° C. and 5% CO2 • prepare samples and controls as solutions in DMSO: R848, CL075 (TLR 7/8 agonist by InvivoGen) and Guardiquimod each to a final concentration of 10 μM, ODN2006 (InvivoGen) and ODN2216 (InvivoGen) each to a final concentration 2 μM; • compounds of the invention are applied in dilution series to final concentrations of 30, 10, 3, 1, etc. μM • add 20 μl diluted compounds and controls (see above) to the wells • incubate plates for 20-24 h at 37° C. and 5% CO2 • prepare QuantiBlue™ (InvivoGen #10H19-MM) solution, following manufacturer's instructions: solubilize the powder of one pouch in 100 ml MilliQ grade water, heat at 37° C. in a water bath for about 30 min, filter the solution with a paper filter • add 100 μl prepared QuantiBlue™ solution in each well of a 96 well plate with flat bottom • add […] cell culture supernatant from the induced cells per well • incubate plates for 1 to 1.5 h at 37° C. (until an intense blue color has developed) • read OD at 620 nm with a plate reader • calculate EC50 from data points

cynomolgus monkeys = assay: In vivo IFN-α secretion in cynomolgus monkeys (plasma IFN-α ELISA); settings: cynomolgus monkey, single i.v. 30 min infusion, 0.1 mg/kg
Description: In the following studies, compounds according to the invention were examined in an in vivo cynomolgus monkey model. It is evaluated whether and at which applied dose the compounds cause secretion of IFN-α.
In particular, a defined single dose of test compound was applied intravenously to cynomolgus monkeys by a thirty minute infusion. At several time points after initiation of the intravenous compound application, blood samples (0.5 mL for approximately 0.25 mL plasma) were collected from the vena cephalica antebrachii or vena saphena into K3EDTA tubes from the animals. Blood samples were stored on crushed ice prior to centrifugation. Plasma was obtained by centrifugation at 4° C. and approximately 1800 g for 10 minutes and was aliquoted into labeled micro tubes and stored frozen at −70° C. or below. Plasma samples were thawed, diluted and used for determination of IFN-α levels using an IFN-α Elisa Kit (e.g. VeriKine™ Cynomolgus/Rhesus IFN-α ELISA Kit) according to the manufacturer's instructions.

- EC50 (human TLR7): 44 nM
Compound: CCc1nc2c(N)nc3ccccc3c2n1CCCCN(C(C)=O)C1CCOCC1 [Example 1, N-(4-(4-Amino-2-ethyl-1H-imidazo[4,5-c]quinolin-1-yl)butyl)-N-(tetrahydro-2H-pyran-4-yl)acetamide]
- IFN-α secretion (plasma) (cynomolgus monkeys): up to 15,000 pg/ml
